The record followed here is patent US20090170886A1 (Pfizer Inc, priority 2005, published 2009).

For test [1], the target named is T1, hAR (human androgen receptor, baculovirus/Sf9 generated extracts) (Homo sapiens, UniProt P10275).
T1 construct: made in house; host or cells: baculovirus/Sf9 insect cells (crude extract)
T1 sequence (P10275 1-920): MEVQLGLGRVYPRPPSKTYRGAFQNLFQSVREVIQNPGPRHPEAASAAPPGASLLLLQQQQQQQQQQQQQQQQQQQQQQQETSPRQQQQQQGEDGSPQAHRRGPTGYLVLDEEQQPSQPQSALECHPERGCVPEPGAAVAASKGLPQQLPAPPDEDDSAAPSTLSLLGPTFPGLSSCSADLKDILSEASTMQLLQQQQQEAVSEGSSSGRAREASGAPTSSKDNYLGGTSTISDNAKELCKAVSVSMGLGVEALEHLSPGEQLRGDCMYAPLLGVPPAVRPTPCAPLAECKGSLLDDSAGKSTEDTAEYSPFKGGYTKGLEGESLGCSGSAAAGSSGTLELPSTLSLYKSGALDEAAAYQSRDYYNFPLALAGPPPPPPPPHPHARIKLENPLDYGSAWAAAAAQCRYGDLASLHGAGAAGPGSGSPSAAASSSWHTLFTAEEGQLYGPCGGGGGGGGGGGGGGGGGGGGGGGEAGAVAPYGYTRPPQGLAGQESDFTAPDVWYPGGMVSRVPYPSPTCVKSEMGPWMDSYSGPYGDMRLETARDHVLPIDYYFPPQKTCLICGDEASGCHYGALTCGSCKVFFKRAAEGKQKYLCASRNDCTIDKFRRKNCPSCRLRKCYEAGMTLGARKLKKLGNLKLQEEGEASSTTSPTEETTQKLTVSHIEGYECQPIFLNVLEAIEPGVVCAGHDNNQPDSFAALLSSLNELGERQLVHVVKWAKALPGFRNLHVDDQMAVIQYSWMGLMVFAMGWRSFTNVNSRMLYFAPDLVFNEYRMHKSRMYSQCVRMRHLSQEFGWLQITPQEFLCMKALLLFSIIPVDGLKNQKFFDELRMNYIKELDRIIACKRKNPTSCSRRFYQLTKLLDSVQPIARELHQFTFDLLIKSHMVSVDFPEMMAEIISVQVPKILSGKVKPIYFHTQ
Kind of test: AR Binding Assay (competitive binding with 3H-DHT tracer). The conditions noted are these: 1 nM 3H-DHT, one hour at 4° C., mean of multiple tests. The protocol:
The compounds of Formula I have affinity for the androgen receptor. […] The description below describes how the assay was carried out.
Competitive binding analysis was performed on baculovirus/Sf9 generated hAR extracts in the presence or absence of different concentrations of test agent and a fixed concentration of ^3H-dihydrotestosterone (^3H-DHT) as tracer. This binding assay method is a modification of a protocol previously described (Liao S., et. al., J. Steroid Biochem., 20:11-17, 1984). Briefly, progressively decreasing concentrations of compounds are incubated in the presence of hAR extract (Chang et al., P.N.A.S., Vol. 89, pp. 5546-5950, 1992), hydroxylapatite, and 1 nM ^3H-DHT for one hour at 4° C. Subsequently, the binding reactions are washed three times to completely remove excess unbound ^3H-DHT. hAR bound ^3H-DHT levels are determined in the presence of compounds (i.e. competitive binding) and compared to levels bound when no competitor is present (i.e. maximum binding). Compound binding affinity to the hAR is expressed as the concentration of compound at which one half of the maximum binding is inhibited. Table II below provides the results that were obtained for selected compounds (reported data is the mean of multiple tests as shown below).

Test [2] addresses T2, androgen receptor in MDA-MB453-MMTV clone 54-19 cells (Homo sapiens, UniProt P10275).
T2 sequence (P10275 1-920 Q868H): T1 sequence (P10275 1-920) with Q868H
Kind of test: AR Antagonist Cell Assay (MMTV-luciferase reporter, DHT-induced). The conditions noted are these: MDA-MB453-MMTV clone 54-19, 100 pM DHT, 17 hr; mean of multiple tests. The format is cell-based. The protocol:
The compounds ability to antagonize the effects of androgen on the androgen receptor were determined in a whole cell assay as described immediately below.
Cell line: MDA-MB453-MMTV clone 54-19. This cell line is a stable transfected cell line with MDA-MB453 cell background (a human breast tumor cell line expressing androgen receptor). A MMTV minimal promoter containing ARE was first cloned in front of a firefly luciferase reporter gene. Then the cascade was cloned into transfection vector pUV120puro. Electroporation method was used for transfecting MDA-MB-453 cell. Puromycin resistant stable cell line was selected.
Culture medium: DMEM (high glucose, Gibco cat #: 11960-044), 10% FBS, and 1% L-glutamine
Plating medium: DMEM (phenol red free), 10% charcoal treated HyClone serum, 1% L-glutamine
Assay medium: DMEM (phenol red free), 1% charcoal treated HyClone serum, 1% L-glutamine, and 1% penicillin/streptomycin
3× luciferase buffer: 2% beta-mercaptoethanol, 0.6% ATP, 0.0135% luciferine in cell lysis buffer
Cells are maintained in culture medium, splitting cells when they reach 80-90% confluence. To test compounds, 10,000 cells/well are plated to opaque 96 cell culture plate in 100 ul/well plating medium, culture for overnight at 37° C. in cell culture incubator. Carefully remove plating medium, then add 80 ul/well of pre-warmed assay medium, add 10 ul/well testing compound (final concentration at) 1000 nM, 200 nM, 40 nM, 8 nM, 1.6 nM, and 0.32 nM), incubate at 37° C. for 30 minutes. Add 10 ul/well freshly prepared DHT (final concentration at 100 pM) to each well, incubate at 37° C. for 17 hr (overnight). Add 50 ul/well 3× luciferase buffer, incubate at room temperature for 5 minutes, then count on Luminometer. The fold induction over background by 100 pM DHT in the absence of testing compounds is standardized as 100% and experimental result is expressed as percentage of inhibition by testing compounds.
The results are reported as the mean of multiple tests as described below (the numbers of tests are indicated in the footnote). ND denotes that the compound was not tested.
On the technique in general: In a reporter assay the amount or activity of a reporter protein is the signal.

Setting [3] is: hAR extract, read-out: AR Binding IC50.

Substitutions are numbered along the chain they refer to. Where two headings read alike, the source gives them in different places.

Regarding `CC(Oc1ccc(C#N)c(C(F)(F)F)c1)c1ccccn1` (racemic) [Example 35, 4-(1-Pyridin-2-yl-ethoxy)-2-trifluoromethyl-benzonitrile], the half-inhibitory concentration (IC50) in test [1] (AR Binding IC50, hAR extract) was 180 nM; in test [2], 254 nM.

For `CC(Oc1ccc(C#N)c(C(F)(F)F)c1)c1cccnc1` (single isomer, unassigned) [Example 34, 4-(1-Pyridin-3-yl-ethoxy)-2-trifluoromethyl-benzonitrile], the IC50 was found to be 141 nM in test [1] (AR Binding IC50, hAR extract) and 94 nM in test [2].

In the case of `CC(Oc1ccc(C#N)c(C(F)(F)F)c1)c1cccc(C#N)c1` (single isomer, unassigned) [Example 78, 4-[1-(3-Cyano-phenyl)-ethoxy]-2-trifluoromethyl-benzonitrile], the IC50 in test [1] (AR Binding IC50, hAR extract) came out at 37 nM; in test [2] it was 47 nM.

On to `CC(Oc1ccc(C#N)c(C(F)(F)F)c1)c1cccc(O)c1` (single isomer, unassigned; (+)) [Example 10, (+)-4-[1-(3-Hydroxyphenyl)ethoxy]-2-(trifluoromethyl)benzonitrile], for which the IC50 in test [1] (AR Binding IC50, hAR extract) was 3 nM; in test [2] it was at least 1000 nM.

Consider `CCC(Oc1ccc(C#N)c(C(F)(F)F)c1)c1cccc(O)c1` (single isomer, unassigned; (+)) [Example 12, (+)4-[1-(3-Hydroxyphenyl)propoxy]-2-(trifluoromethyl)benzonitrile], for which the IC50 is 19 nM in test [1] (AR Binding IC50, hAR extract) and above 1000 nM in test [2].

Regarding `C=CCC(Oc1ccc(C#N)c(C(F)(F)F)c1)c1cccc(O)c1` (single isomer, unassigned; (+)) [Example 18, (+)4-{[1-(3-Hydroxyphenyl)but-3-enyl]oxy}-2-(trifluoromethyl)benzonitrile], the IC50 in test [1] (AR Binding IC50, hAR extract) worked out at 17 nM; in test [2], 86 nM.

Turning to `CCC(Oc1ccc(C#N)c(C(F)(F)F)c1)c1cccc(O)c1` (single isomer, unassigned; (-)) [Example 13, (−)4-[1-(3-Hydroxyphenyl)propoxy]-2-(trifluoromethyl)benzonitrile], the IC50 is 23 nM in test [1] (AR Binding IC50, hAR extract) and 31 nM in test [2].

`C[C@H](Oc1ccc(C#N)c(C(F)(F)F)c1)c1ccccc1` [Example 2, (S)-4-(1-Phenyl-ethoxy)-2-trifluoromethyl-benzonitrile]: the IC50 in test [1] (AR Binding IC50, hAR extract) was 13 nM; in test [2], 381 nM.

Consider `C[C@@H](Oc1ccc(C#N)c(C(F)(F)F)c1)c1ccccc1` [Example 3, (R)-4-(1-Phenyl-ethoxy)-2-trifluoromethyl-benzonitrile], for which the IC50 in test [1] (AR Binding IC50, hAR extract) came to 3 nM; in test [2], 61 nM.

With `COc1cccc(C(C)Oc2ccc(C#N)c(C(F)(F)F)c2)c1` (stereo not drawn) [Example 4, 4-[1-(3-Methoxy-phenyl)-ethoxy]-2-t-trifluoromethyl-benzonitrile], the results for the IC50 in test [1] (setting [3]) and in test [2] were 78 nM and above 1000 nM, respectively.

For `COc1ccccc1C(C)Oc1ccc(C#N)c(C(F)(F)F)c1` (stereo not drawn) [Example 5, 4-[1-(2-Methoxy-phenyl)-ethoxy]-2-t-trifluoromethyl-benzonitrile], the IC50 is 312 nM in test [1] (setting [3]) and above 1000 nM in test [2].

As to `C=CC(Oc1ccc(C#N)c(C(F)(F)F)c1)c1cccc(O)c1` (stereo not drawn) [Example 16, 4-{[1-(3-Hydroxyphenyl)prop-2-enyl]oxy}-2-(trifluoromethyl)benzonitrile], the IC50 was determined as 11 nM in test [1] (AR Binding IC50, hAR extract) and 416 nM in test [2].

With `CC(Oc1ccc(C#N)c(C(F)(F)F)c1)c1ccccc1Cl` (stereo not drawn) [Example 22, 4-[1-(2-Chloro-phenyl)-ethoxy]-2-trifluoromethyl-benzonitrile], the IC50 in test [1] (setting [3]) amounted to 108 nM; in test [2], 102 nM.

Consider `CC(Oc1ccc(C#N)c(C(F)(F)F)c1)c1ccccc1F` (stereo not drawn) [Example 24, 4-[1-(2-Fluoro-phenyl)-ethoxy]-2-trifluoromethyl-benzonitrile], for which the IC50 is 79 nM in test [1] (AR Binding IC50, hAR extract) and 826 nM in test [2].

In the case of `CC(Oc1ccc(C#N)c(C(F)(F)F)c1)c1ccc(F)cc1` (stereo not drawn) [Example 25, 4-[1-(4-Fluoro-phenyl)-ethoxy]-2-trifluoromethyl-benzonitrile], the IC50 is 137 nM in test [1] (AR Binding IC50, hAR extract) and 92 nM in test [2].

In the case of `CC(Oc1ccc(C#N)c(C(F)(F)F)c1)c1cccc(Cl)c1` (stereo not drawn) [Example 26, 4-[1-(3-Chloro-phenyl)-ethoxy]-2-trifluoromethyl-benzonitrile], the IC50 in test [1] (AR Binding IC50, hAR extract) is 122 nM; in test [2], 56 nM.

Consider `Cc1cccc(C(C)Oc2ccc(C#N)c(C(F)(F)F)c2)c1` (stereo not drawn) [Example 28, 4-(1-m-Tolyl-ethoxy)-2-trifluoromethyl-benzonitrile], for which the IC50 in test [1] (AR Binding IC50, hAR extract) was 50 nM; in test [2] it was 573 nM.

With `CC(Oc1ccc(C#N)c(C(F)(F)F)c1)c1cccc(C#N)c1` (stereo not drawn) [Example 30, 4-[1-(3-Cyano-phenyl)-ethoxy]-2-trifluoromethyl-benzonitrile], the IC50 amounted to 22 nM in test [1] (AR Binding IC50, hAR extract) and 7 nM in test [2].

A word on the IC50: it is the point on the concentration scale where inhibition reaches its midpoint.
